Experimental data reported in PubChem BioAssay (NCI).
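96-well plates; 48 h exposure; 5 concentrations. Endpoints by linear interpolation between flanking doses. Not reached: highest tested concentration assigned. GI50 marks 50% less growth. TGI denotes the concentration required for complete inhibition of growth.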

Columns and labels:
Experiment in all cases: NCI anticancer screen, dose series, 48 h
[1] = tested on: 786-0 renal
[2] = tested on: A498 renal
[3] = tested on: A549 NSCLC
[4] = tested on: ACHN renal
[5] = tested on: BT-549 breast
[6] = tested on: CAKI-1 renal
[7] = tested on: CCRF-CEM leukemia
[8] = tested on: COLO 205 colon
[9] = tested on: DU-145 prostate
[10] = tested on: EKVX NSCLC
[11] = tested on: HCC-2998 colon
[12] = tested on: HCT-116 colon
[13] = tested on: HCT-15 colon
[14] = tested on: HL-60(TB) leukemia
[15] = tested on: HOP-62 NSCLC
[16] = tested on: HOP-92 NSCLC
[17] = tested on: HS 578T breast
[18] = tested on: IGROV1 ovarian
[19] = tested on: K-562 leukemia
[20] = tested on: KM12 colon
[21] = tested on: LOX IMVI melanoma
[22] = tested on: M14 melanoma
[23] = tested on: MCF7 breast
[24] = tested on: MDA-MB-231 breast
[25] = tested on: MDA-MB-435
[26] = tested on: MOLT-4 leukemia
[27] = tested on: NCI-H23 lung
[28] = tested on: NCI-H460 lung
[29] = tested on: NCI-H522 lung
[30] = tested on: NCI/ADR-RES ovarian
[31] = tested on: OVCAR-3 ovarian
[32] = tested on: OVCAR-5 ovarian
[33] = tested on: OVCAR-8 ovarian
[34] = tested on: PC-3 prostate
[35] = tested on: RPMI-8226 leukemia
[36] = tested on: RXF 393 renal
[37] = tested on: SF-268 CNS
[38] = tested on: SF-295 CNS
[39] = tested on: SF-539 CNS
[40] = tested on: SK-MEL-2 melanoma
[41] = tested on: SK-MEL-28 melanoma
[42] = tested on: SK-MEL-5 melanoma
[43] = tested on: SK-OV-3 ovarian
[44] = tested on: SN12C renal
[45] = tested on: SNB-19 CNS
[46] = tested on: SNB-75 CNS
[47] = tested on: SR leukemia
[48] = tested on: SW-620 colon
[49] = tested on: T-47D breast
[50] = tested on: TK-10 renal
[51] = tested on: U251 CNS
[52] = tested on: UACC-257 melanoma
[53] = tested on: UACC-62 melanoma
[54] = tested on: UO-31 renal

Q: Which GI50 [1] does the source give for `Nc1ccccc1C#C/C=C\C#Cc1ccccc1[N+](=O)[O-]` here?
A: 12.3 µM

Q: And the TGI [1]?
A: 43.2 µM

Q: And the GI50 [2]?
A: 25.4 µM

Q: What about the TGI [2] of the same molecule?
A: 69.7 µM

Q: And the GI50 [3]?
A: 4.42 µM

Q: And the TGI [3]?
A: 21.3 µM

Q: And the GI50 [4]?
A: 5.3 µM

Q: What about the TGI [4] of the same molecule?
A: 19 µM

Q: What about the GI50 [5] of the same molecule?
A: 4.66 µM

Q: What about the TGI [5] of the same molecule?
A: 22.6 µM

Q: And the GI50 [6]?
A: 3.28 µM

Q: And the TGI [6]?
A: 23 µM

Q: What about the GI50 [7] of the same molecule?
A: 3.75 µM

Q: What about the TGI [7] of the same molecule?
A: 18.1 µM

Q: What about the GI50 [8] of the same molecule?
A: 4.38 µM

Q: And the TGI [8]?
A: 22 µM

Q: And the GI50 [9]?
A: 7.86 µM

Q: What about the TGI [9] of the same molecule?
A: 29.2 µM

Q: What about the GI50 [10] of the same molecule?
A: 2.51 µM

Q: What about the TGI [10] of the same molecule?
A: 17.8 µM

Q: What about the GI50 [11] of the same molecule?
A: 12 µM

Q: And the TGI [11]?
A: 43.6 µM

Q: What about the GI50 [12] of the same molecule?
A: 4.31 µM

Q: And the TGI [12]?
A: 36 µM

Q: And the GI50 [13]?
A: 0.718 µM

Q: What about the TGI [13] of the same molecule?
A: 21.7 µM

Q: And the GI50 [14]?
A: 1.96 µM

Q: And the TGI [14]?
A: 60.7 µM

Q: What about the GI50 [15] of the same molecule?
A: 17.5 µM

Q: What about the TGI [15] of the same molecule?
A: 48.6 µM

Q: And the GI50 [16]?
A: 31.7 µM

Q: What about the TGI [16] of the same molecule?
A: > 100 µM

Q: And the GI50 [17]?
A: 4.99 µM

Q: And the TGI [17]?
A: > 100 µM

Q: What about the GI50 [18] of the same molecule?
A: 10.9 µM

Q: What about the TGI [18] of the same molecule?
A: 79.8 µM

Q: And the GI50 [19]?
A: 0.533 µM

Q: What about the TGI [19] of the same molecule?
A: 5.93 µM

Q: What about the GI50 [20] of the same molecule?
A: 3.19 µM

Q: And the TGI [20]?
A: 70.6 µM

Q: And the GI50 [21]?
A: 2.28 µM

Q: And the TGI [21]?
A: 15.7 µM

Q: What about the GI50 [22] of the same molecule?
A: 8.08 µM

Q: And the TGI [22]?
A: 26.9 µM

Q: And the GI50 [23]?
A: 3.32 µM

Q: What about the TGI [23] of the same molecule?
A: > 100 µM

Q: What about the GI50 [24] of the same molecule?
A: 2.61 µM

Q: And the TGI [24]?
A: 14.6 µM

Q: And the GI50 [25]?
A: 0.402 µM

Q: What about the TGI [25] of the same molecule?
A: 14.1 µM

Q: What about the GI50 [26] of the same molecule?
A: 27.7 µM

Q: What about the TGI [26] of the same molecule?
A: > 100 µM

Q: What about the GI50 [27] of the same molecule?
A: 12.4 µM

Q: What about the TGI [27] of the same molecule?
A: 38.5 µM

Q: What about the GI50 [28] of the same molecule?
A: 3.59 µM

Q: And the TGI [28]?
A: 83.1 µM

Q: What about the GI50 [29] of the same molecule?
A: 7.25 µM

Q: What about the TGI [29] of the same molecule?
A: 39.8 µM

Q: And the GI50 [30]?
A: 1.23 µM

Q: What about the TGI [30] of the same molecule?
A: 6.47 µM

Q: What about the GI50 [31] of the same molecule?
A: 4.03 µM

Q: And the TGI [31]?
A: 37 µM

Q: And the GI50 [32]?
A: 17.4 µM

Q: And the TGI [32]?
A: 33.6 µM

Q: And the GI50 [33]?
A: 4.83 µM

Q: And the TGI [33]?
A: 32.9 µM

Q: What about the GI50 [34] of the same molecule?
A: 6.82 µM

Q: What about the TGI [34] of the same molecule?
A: > 100 µM

Q: What about the GI50 [35] of the same molecule?
A: 4.58 µM

Q: What about the TGI [35] of the same molecule?
A: > 100 µM

Q: What about the GI50 [36] of the same molecule?
A: 2.07 µM

Q: And the TGI [36]?
A: 9.06 µM

Q: What about the GI50 [37] of the same molecule?
A: 6.38 µM

Q: And the TGI [37]?
A: 27.7 µM

Q: And the GI50 [38]?
A: 7.31 µM

Q: And the TGI [38]?
A: 85.8 µM

Q: What about the GI50 [39] of the same molecule?
A: 2.17 µM

Q: And the TGI [39]?
A: 10.4 µM

Q: What about the GI50 [40] of the same molecule?
A: 12.9 µM

Q: And the TGI [40]?
A: 34.7 µM

Q: And the GI50 [41]?
A: 15.4 µM

Q: What about the TGI [41] of the same molecule?
A: 34.8 µM

Q: And the GI50 [42]?
A: 3.08 µM

Q: And the TGI [42]?
A: 18.6 µM

Q: What about the GI50 [43] of the same molecule?
A: 9.26 µM

Q: And the TGI [43]?
A: 60.9 µM

Q: And the GI50 [44]?
A: 3.18 µM

Q: And the TGI [44]?
A: 13.7 µM

Q: What about the GI50 [45] of the same molecule?
A: 19.8 µM

Q: And the TGI [45]?
A: 96.2 µM

Q: What about the GI50 [46] of the same molecule?
A: 13.3 µM

Q: What about the TGI [46] of the same molecule?
A: 58.3 µM

Q: What about the GI50 [47] of the same molecule?
A: 0.289 µM

Q: And the TGI [47]?
A: 5.54 µM

Q: And the GI50 [48]?
A: 0.942 µM

Q: What about the TGI [48] of the same molecule?
A: 88.8 µM

Q: What about the GI50 [49] of the same molecule?
A: 34.6 µM

Q: What about the TGI [49] of the same molecule?
A: > 100 µM

Q: What about the GI50 [50] of the same molecule?
A: 28.2 µM

Q: What about the TGI [50] of the same molecule?
A: > 100 µM

Q: And the GI50 [51]?
A: 3.72 µM

Q: And the TGI [51]?
A: 18.9 µM

Q: And the GI50 [52]?
A: 4.98 µM

Q: What about the TGI [52] of the same molecule?
A: 20 µM

Q: And the GI50 [53]?
A: 2.02 µM

Q: What about the TGI [53] of the same molecule?
A: 10.6 µM

Q: What about the GI50 [54] of the same molecule?
A: 10.5 µM

Q: What about the TGI [54] of the same molecule?
A: 28.4 µM
